# Measured values reported in US10570117B2, “Phenylimidazole compound” (Otsuka Pharmaceutical Factory, Inc., priority 2015, dated 2020).
# Like-named read-outs stand apart in the source and are kept apart here.
# What was measured:
# [1] = tested on: lipoprotein lipase (LPL) gene; assay: LPL mRNA elevating action (RT-PCR quantification of LPL mRNA in C2Cl2 cells); type: cell-based, mouse; settings: Mus musculus, 24 h, compound 10 μM, ratio relative to the amount of LPL mRNA in cells with DMSO only, read-out: Rate of increase in LPL mRNA
# Method: LPL mRNA Elevating Action
# C2Cl2 cells (cell strain derived from striated muscle of mouse) were seeded in 96-well plates using a DMEM medium (Gibco) (containing 2 mM L-glutamine and 10% fetal bovine serum). After the cells were grown, the medium was removed. Subsequently, media obtained by adding dimethyl sulfoxide (DMSO) solutions of the compounds to the same medium as described above to a concentration of 10 μM were individually added to the cells and allowed to stand for 24 hours. The compound-containing media were removed, and the plates were washed with phosphate buffered saline. Thereafter, the remaining cells were lysed and subjected to a reverse transcription polymerase chain reaction (RT-PCR reaction) to obtain cDNA. Primers specific to lipoprotein lipase (LPL) gene, a necessary enzyme, etc., were added to the obtained cDNA. The mixture was set in 7500 Fast Real Time PCR System produced by Applied Biosystem to perform a PCR reaction (20 cycles) and the amount of LPL mRNA amplified was quantified. The LPL mRNA elevating action of each compound in the test cells was indicated as the ratio relative to the amount of LPL mRNA in cells allowed to stand in a medium to which only DMSO was added, with the amount being defined as 1.
# As Comparative Example 1, a test was performed in the same manner as above, using a compound disclosed as the compound of Example 57 in WO2010/090200.
# [2] = Solubility in gastric juice or intestinal juice model fluid (precipitation method using DMSO); type: physicochemical; settings: room temperature
# How it was run: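 Dissolved amount (μg/mL) quantified by UV of filtrate versus pre-made calibration curves. Precipitation approach: DMSO solutions spiked into pH 1.2 (JP 1st fluid) or pH 6.8 (JP 2nd fluid) medium, shaken at room temperature for 24 h before insolubles were filtered off.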
# [3] = pH 1.2, simulated gastric fluid, kinetic from dmso stock, 1st fluid for Disintegration Test of Japanese Pharmacopoeia (pH: 1.2), read-out: Solubility (μg/mL) 1st fluid
# [4] = pH 6.8, kinetic from dmso stock, 2nd fluid for Disintegration Test of Japanese Pharmacopoeia (pH: 6.8), read-out: Solubility (μg/mL) 2nd fluid
"solubility at 24 h [2, 3]","solubility at 24 h [2, 4]",melting point,Structure (SMILES),fold induction at 10 µM [1]
20.7 µg/mL,1.7 µg/mL,165 to 166 °C,"COc1cc(OCc2ccc(C(F)(F)F)nc2)ccc1-c1c[nH]c(-c2ccc(F)nc2)n1 [Example 1, 2-fluoro-5-[5-[2-methoxy-4-((6-(trifluoromethyl)pyridin-3-yl)methoxy)phenyl]-1H-imidazol-2-yl]pyridine]",2.97
91.5 µg/mL,47 µg/mL,167 to 169 °C,COc1cc(OCc2ccc(C(F)(F)F)nc2)ccc1-c1[nH]c(C2CCC(F)(F)CC2)nc1C [Example 6],4.44
> 81 µg/mL,74 µg/mL,52 to 63 °C,COc1cc(OCc2coc(C)n2)ccc1-c1cnc(C2CCC(F)(F)CC2)[nH]1 [Example 13],2.31
7.8 µg/mL,< 8.1 µg/mL,199 to 201 °C (dec.),COc1cc(OCc2ccc(C(F)(F)F)nc2)c(C)cc1-c1cnc(-c2ccc(F)nc2)[nH]1 [Example 15],4.27
90.8 µg/mL,13.4 µg/mL,162 to 167 °C,COc1cc(-c2cnc(C3CCC(F)(F)CC3)[nH]2)ccc1OCc1ccc(C(F)(F)F)nc1 [Example 16],3.14
> 93 µg/mL,3 µg/mL,62 to 72 °C,COc1cc(OCc2ccc(C(F)(F)F)nc2)ccc1-c1cnc(C2CCC(F)(F)CC2)[nH]1 [Example 17],3.2
43.5 µg/mL,3.7 µg/mL,> 250 °C,COc1cc(OCc2ccc(C(F)(F)F)cn2)ccc1-c1c[nH]c(-c2ccc(O)nc2)n1 [Example 18],1.05
76.7 µg/mL,2.2 µg/mL,168 to 171 °C,COc1cc(OCc2coc(C)n2)ccc1-c1c[nH]c(-c2ccc(Cl)nc2)n1 [Example 19],1.7
3 µg/mL,< 1.8 µg/mL,162 to 167 °C,COCCOc1cc(OCc2ccc(C(F)(F)F)cn2)ccc1-c1c[nH]c(-c2ccc(Cl)nc2)n1 [Example 21],1.99
,,196 to 203 °C,COc1cc(OCc2ncc(Cl)cc2Br)ccc1-c1[nH]c(-c2ccc(F)nc2)nc1Br [Example 264],2.99
,,223 to 225 °C (dec.),COc1cc(OCc2ccnc(C(F)(F)F)c2)ccc1-c1[nH]c(-c2ccc(F)nc2)nc1Br [Example 271],3.39
,,200 to 202 °C (dec.),COc1cc(OCc2cccc(C(F)(F)F)n2)ccc1-c1[nH]c(-c2ccc(F)nc2)nc1Br [Example 273],2.5
,,203 to 208 °C,COc1cc(OCc2ccncc2C(F)(F)F)ccc1-c1[nH]c(-c2ccc(F)nc2)nc1Cl [Example 277],2.66
,,176 to 179 °C,COc1cc(OCc2cccnc2C(F)(F)F)ccc1-c1[nH]c(-c2ccc(F)nc2)nc1Br [Example 278],2.95
,,156 to 158 °C,COc1cc(OCc2ncc(Cl)cc2C(F)(F)F)ccc1-c1[nH]c(-c2ccc(F)nc2)nc1Cl [Example 280],2.91
,,163 to 165 °C,COc1cc(OCc2ccc(F)cc2F)ccc1-c1[nH]c(-c2ccc(F)nc2)nc1Cl [Example 285],3.01
,,165 to 171 °C,COc1cc(OCc2cccnc2C(F)(F)F)ccc1-c1[nH]c(-c2ccc(F)nc2)nc1Cl [Example 287],3.53
,,140 to 142 °C,COc1cc(OCc2ccc(C(F)(F)F)nc2)ccc1-c1c(Br)nc(-c2ccc(Cl)nc2)n1C [Example 299],2.97
,,222 to 227 °C,Fc1ccc(-c2nc(F)c(-c3ccc(OCc4ncc(C(F)(F)F)cc4F)cc3)[nH]2)cn1 [Example 356],2.06
